From PMC7747594, “Protease-activated receptor-2 ligands reveal orthosteric and allosteric mechanisms of receptor inhibition” (Communications Biology, 2020) come the findings set out here.

Format in all cases: cell-based
In assay [1] the target is T1, hPAR2 (Homo sapiens, UniProt P55085).
T1 sequence (P55085 26-397): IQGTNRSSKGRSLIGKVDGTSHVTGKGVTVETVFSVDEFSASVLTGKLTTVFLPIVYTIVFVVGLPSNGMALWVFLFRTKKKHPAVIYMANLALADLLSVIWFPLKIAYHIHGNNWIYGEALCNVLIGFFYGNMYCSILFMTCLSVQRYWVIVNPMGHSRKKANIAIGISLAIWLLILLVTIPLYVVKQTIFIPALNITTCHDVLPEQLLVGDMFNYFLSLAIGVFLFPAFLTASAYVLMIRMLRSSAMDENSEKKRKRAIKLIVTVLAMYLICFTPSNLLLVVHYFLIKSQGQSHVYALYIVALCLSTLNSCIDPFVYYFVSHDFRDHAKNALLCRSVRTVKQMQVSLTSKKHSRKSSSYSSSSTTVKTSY
Put plainly: Ca^2+ flux assay, agonist mode, 1321N1-hPAR2 cells. Details: Ca^2+ mobilisation tested as agonist, Fig 1c source data / Ca2+ response (Fig 2c), individual replicate values: unit not given here. The note with it: for Ca2+ response (Fig 2c), individual replicate values: hPAR2. On the procedure: (§1) Cells were loaded with Fluo-8 NW calcium dye (AAT Bioquest) for 30 min at 37 °C before compounds in Hank’s balanced salt solution (HBSS, ThermoFisher Scientific) with 20 mM HEPES (ThermoFisher Scientific), 0.1% bovine serum albumin (BSA, Sigma) and 0.5% DMSO were added and simultaneously evaluated for changes in intracellular [Ca^2+] using FLIPR TETRA (Molecular Devices) to detect agonism. For each concentration, the difference between the maximum peak Ca^2+ response and baseline response is reported. […] Antagonism experiments were also carried out on 1321N1-PAR2[WT], 1321N1-PAR2[F154A], and 1321N1-PAR2[G157C] as described. Experiments with trypsin in 1321N1-hPAR2 cells were performed in the presence of 1 µM Vorapaxar (Chemtronica) to remove any interference of PAR1 activity. […] Antagonism experiments for CHO-hPAR2 and HT-29 cells were performed in 96-well plates at 30,000 cells/well. Cells were loaded with Fluo-3 AM calcium dye (Sigma-Aldrich) for 60 min at 37 °C in HBSS with 1% FBS, 0.2% pluronic acid, 20 mM HEPES and 2.5 mM probenecid prior to the addition of antagonist. The antagonist was pre-incubated for 60 min at 37 °C followed by the addition of bovine trypsin (30 nM) at EC80. Intracellular [Ca^2+] flux was measured using FLIPR TETRA (Molecular Devices) and the difference between the maximum peak Ca^2+ response and baseline response is reported.
(§2) Binding data were analysed using the One site – Fit Ki model in GraphPad Prism 8 (GraphPad Software) to determine binding affinity. Pharmacology in vitro potency data was analysed with a 4-parameter logistic fit using the equation y = Bottom + (Top − Bottom)/[…] where y is the response, x is the 10-logarithm of the drug concentration, Bottom is no response and Top is full response in GraphPad Prism 8 or Genedata Screener (Genedata). pEC50 and pIC50 data are presented as mean ± standard error of the mean (s.e.m.) derived from the number of independent experiments stated. Schild slope analysis was calculated using Graphpad Prism 8 Gaddum/Schild EC50 global fitting (shared model parameters between all data sets) competitive model. […] Schild slope quantifies the shifts in agonist response in the presence of antagonist, a Schild slope of 1 indicates the antagonist is competitive and extra-sum-of-squares F-test (p < 0.05) was used to compare the calculated Schild slope against a hypothetical Schild slope of 1. […] The relative activity was calculated using (EmaxEC50’)/(Emax’EC50) with the Hill slope help constant at 1. EC50’ and Emax’ denote the EC50 and Emax in the absence of allosteric modulator, while EC50 and Emax denote those measured in the presence of allosteric modulator. When the Hill slope = 1, the relative activity plot approaches an asymptote corresponding to the estimate of the γ value.

Assay [2] concerns the target T1, hPAR2. Nature of the assay: pERK1/2 HTRF assay, inhibition of SLIGRL-NH2 in U2OS-hPAR2 cells. Conditions: SLIGRL-NH2, U2OS-hPAR2; mean ± s.e.m.; read-out: pERK1/2 (hPAR2) pIC50 (converted). On the procedure:
Phosphorylation of ERK1/2 was measured in U2OS-hPAR2 cells using Phospho-ERK1/2 (Thr202/Tyr204) assay kit (64ERKPEH Cisbio) and the 2 plate manufacturer’s protocol with the following modifications. Cells were seeded in McCoy’s 5A media containing 10% FBS at 15,000 cells per well in 384-well plates and incubated overnight at 37 °C, 5% CO2. Antagonist compounds (30 µM–1 nM) were incubated with the cells for 30 min prior to the addition of agonist SLIGRL-NH2 (10 µM) at EC80 and further incubation for 5 min at 37 °C. The supernatant was removed from the wells and lysis buffer was added to the cells and incubated with shaking at room temperature for 30 min. The cell lysate was transferred into a small-volume 384-well plate containing detection antibodies and incubated for 4 h at room temperature in the dark. Plates were read for HTRF signal on PHERAstar (BMG LabTech). In addition, phosphorylation of ERK1/2 was measured in CHO-hPAR2 using AlphaLISA SureFire Ultra pERK1/2 (Thr202/Tyr204) (Perkin Elmer). Cells were seeded at a density of 2000 cells per well in a 384-well proxiplate and incubated overnight. […] After incubation, cell lysis buffer was added with shaking for 30 min. Antibodies and beads were added and incubated for 4 h at room temperature. AlphaLISA signal was measured using a PHERAstar (BMG LabTech).
as §2
Background: In TR-FRET formats the signal depends on donor and acceptor labels being close together.

Assay [3] has as its target T1, hPAR2. Put plainly: Ca^2+ flux assay, inhibition of trypsin activation in 1321N1-hPAR2 cells (with 1 µM Vorapaxar). The note with it: 1321N1-hPAR2 cells, 1 µM Vorapaxar.
In assay [4] the target is T1, hPAR2. Nature of the assay: β-arrestin-2 recruitment assay, inhibition of SLIGRL-NH2 in U2OS-hPAR2 cells. Conditions: SLIGRL-NH2, U2OS-hPAR2; mean ± s.e.m.; read-out: β-arrestin (hPAR2) pIC50 (converted). On the procedure: β‐Arrestin-2 recruitment was measured in U2OS-hPAR2 cells using the DiscoverX assay kit, according to the manufacturer’s instructions. Briefly, cells were seeded in McCoy’s 5A media containing 10% FBS at 4000 cells per well in 384-well plates and incubated overnight at 37 °C, 5% CO2. Antagonist compounds (30 µM–1 nM) were incubated with the cells for 30 min prior to the addition of agonist SLIGRL-NH2 (10 µM) at EC80 and further incubation for 90 min at 37 °C. Working detection solution (12 µl) was then added to each well, incubated at room temperature in the dark for 60 min and the chemiluminescence signal read on the EnVision microplate reader (Perkin Elmer).
as §2
A general note: Activated receptors often draw arrestin, which recruitment assays turn into a signal.

Assay [5] has as its target T1, hPAR2. Nature of the assay: Ca^2+ flux assay (FLIPR), inhibition of SLIGRL-NH2 activation in 1321N1-hPAR2 cells. The note with it: SLIGRL-NH2, 1321N1-hPAR2 cells; mean ± s.e.m.; read-out: Ca^2+ flux (hPAR2) pIC50 (converted). On the procedure: as §1, §2

Where “and” joins values, the source holds several entries; their conditions need not be identical. Equal values may be shown once.

Consider `CNC(=O)[C@H]1CC[C@@H](NC(=O)[C@H](CC2CCCCC2)NC(=O)c2cn(Cc3ccccc3)nn2)c2ccccc21` [AZ2429], for which, on hPAR2 [1] (1321N1-hPAR2), the “higher potency than SLIGKV-NH2, Ca^2+ signalling” value is 7 fold. Besides, the “lower potency than GB110, Ca^2+ signalling” value on hPAR2 [1] (1321N1-hPAR2) was determined as 6 fold. At hPAR2 [1] (1321N1-hPAR2 cells, mean ± s.e.m., read-out: Ca^2+ flux pEC50 (converted)), the EC50 is 166 nM. The “Ca2+ response (Fig 2c), individual replicate values” on hPAR2 [1] ([compound],M -4.30103) is 115.742 and 78.7868 and 73.0001 and 99.0117; at hPAR2 [1] ([compound],M -4.77815), 114.252 and 90.1883 and 78.2712 and 103.481; at hPAR2 [1] ([compound],M -5.25527), 97.9804 and 100.329 and 107.319 and 71.9688; on hPAR2 [1] ([compound],M -5.73239), 87.2091 and 90.6467 and 67.5571 and 89.0425; on hPAR2 [1] ([compound],M -6.20952) it was 54.0357 and 69.6197 and 81.4796 and 66.5831; on hPAR2 [1] ([compound],M -6.68664) it was 45.3269 and 46.8166 and 52.6033 and 41.6601. Moreover, the “Ca2+ response (Fig 2c), individual replicate values” on hPAR2 [1] ([compound],M -7.16376) is 19.1435 and 34.6702 and 20.5758 and 32.3784; at hPAR2 [1] ([compound],M -7.64088) it was 5.851 and 8.888 and 9.461 and 7.513; on hPAR2 [1] ([compound],M -8.118), -2.628 and 1.21 and 2.414 and 2.5854; at hPAR2 [1] ([compound],M -8.59512), -2.8 and -3.316 and -1.4252 and -1.712.

In the case of `C[C@@H](C1CCCCC1)n1c(-c2cc3c(cc2Br)OCO3)nc2cc(C(=O)Nc3ccncc3)ccc21` [AZ2623], the IC50 at hPAR2 [2] is 794 nM; on hPAR2 [4], 490 nM; at hPAR2 [5] it was 5.01 nM. The “shape of inhibition of trypsin-induced Ca^2+ mobilisation” value at hPAR2 [3] is given as “biphasic inhibition curves”.
